According to paper PMC8624485, “Modeling, Synthesis, and Biological Evaluation of Potential Retinoid-X-Receptor (RXR) Selective Agonists: Analogs of 4-[1-(3,5,5,8,8-Pentamethyl-5,6,7,8-tetrahyro-2-naphthyl)ethynyl]benzoic Acid (Bexarotene) and 6-(Ethyl(4-isobutoxy-3-isopropylphenyl)amino)nicotinic Acid (NEt-4IB)” (International Journal of Molecular Sciences, 2021):

Assays:
Type in all cases: cell-based
[1] = molecular target: T1, RXR-LXR heterodimer (LXR/LXRE) (Homo sapiens, UniProt P19793); test: LXRE-luciferase transactivation assay in HEK293 cells; conditions: 100 nM compound alone, HEK293, bexarotene (1) set to 100%
T1 construct: expressed in transfected cells; host or cells: HEK293 cells
T1 sequence (P19793 1-462): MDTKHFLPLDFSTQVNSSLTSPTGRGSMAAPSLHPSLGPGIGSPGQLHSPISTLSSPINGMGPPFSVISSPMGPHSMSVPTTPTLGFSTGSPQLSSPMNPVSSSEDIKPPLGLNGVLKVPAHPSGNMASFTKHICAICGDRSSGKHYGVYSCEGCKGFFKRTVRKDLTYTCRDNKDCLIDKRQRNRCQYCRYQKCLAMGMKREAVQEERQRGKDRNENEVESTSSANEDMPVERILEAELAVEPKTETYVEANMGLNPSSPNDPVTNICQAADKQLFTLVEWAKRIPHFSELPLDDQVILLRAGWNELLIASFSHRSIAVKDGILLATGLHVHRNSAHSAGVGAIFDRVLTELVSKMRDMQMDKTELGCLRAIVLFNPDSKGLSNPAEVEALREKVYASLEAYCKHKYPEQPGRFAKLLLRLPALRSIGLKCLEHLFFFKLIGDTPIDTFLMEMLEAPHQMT
T1 sequence (Q13133 1-447 partner): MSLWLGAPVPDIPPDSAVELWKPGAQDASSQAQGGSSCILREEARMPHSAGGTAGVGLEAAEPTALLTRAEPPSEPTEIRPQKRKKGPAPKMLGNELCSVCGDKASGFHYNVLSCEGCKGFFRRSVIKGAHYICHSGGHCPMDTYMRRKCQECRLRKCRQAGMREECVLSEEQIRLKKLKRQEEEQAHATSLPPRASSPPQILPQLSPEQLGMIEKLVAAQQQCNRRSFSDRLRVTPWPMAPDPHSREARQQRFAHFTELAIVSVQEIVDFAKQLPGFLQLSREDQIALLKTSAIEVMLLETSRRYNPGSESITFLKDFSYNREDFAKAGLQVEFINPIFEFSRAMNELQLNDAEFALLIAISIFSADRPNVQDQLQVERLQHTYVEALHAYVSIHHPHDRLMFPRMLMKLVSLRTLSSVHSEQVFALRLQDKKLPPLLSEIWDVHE
Protocol: The activation from this natural LXRE in our system was tested in the presence of either 100 nM RXR agonists alone or in combination with 100 nM of both the RXR agonist and LXR agonist T0901317 (TO). […] The LXRE-mediated assays were performed using human embryonic cells (HEK293) seeded at a density of 60,000 cells/well in a 24-well plate and maintained in DMEM (Hyclone) supplemented with 10% fetal bovine serum, 100 µg/mL streptomycin, 100 U/mL penicillin (Invitrogen, Carlsbad, CA, USA) at 37 degrees Celsius, 5% CO2 for 24 h. The cells were co-transfected with 250 ng of an LXRE-luciferase reporter gene, 50 ng of pSG5-human RXRα, and 20 ng of renilla control plasmid. […] After 24 h post treatment, the cells were lysed and the transcriptional activity mediated by the LXRE was measured using the Dual Luciferase Assay System (Promega, Madison, WI) in a Sirius FB12 luminometer (Berthold Detection Systems, Pforzheim, Germany) according to the manufacturer’s protocol. The data are a compilation of between three and six independent assays with each treatment group dosed in triplicate for each independent assay. […] Bars on all graphs indicate standard deviation of the replicate experiments.
Cells were transfected for 24 h utilizing a liposome-mediated transfection protocol and then treated with the ethanol vehicle, or 100 nM of the indicated compound alone or in combination with 100 nM TO901317 (TO). […] (A) Human HEK-293 cells were transfected and treated as described in Figure 8.

[2] = molecular target: T2, RXRA (Homo sapiens, UniProt P19793); test: ApoA1-Luc luciferase assay in 293T cells with pBABE-RXRA; conditions: pBABE-RXRA and ApoA1-Luc, nonconverged, read-out: EC50 (nM), luciferase (Figure 7C)
T2 construct: expressed in transfected cells; host or cells: 293T cells
T2 sequence (P19793 1-462): T1 sequence (P19793 1-462)
Protocol: 293T cells were transfected using Lipofectamine 2000 (Invitrogen). Six hours after transfection, the cells were collected and plated into a 48-well plate in 1% BSA media in triplicate and treated with compounds. After 40 h incubation, the cells were harvested and assayed for luciferase (Luc Assay System with Reporter Lysis Buffer, Promega) in a Beckman Coulter LD400 plate reader.

[3] = molecular target: T3, RXRα (Homo sapiens, UniProt P19793); test: UAS/Gal4 GFP reporter assay of RXRα activation in UAS-GFP x KMT2A-MLLT3 cells; conditions: RXRα activation; value (SD); Table 1 does not say whether GFP or Luc assay; read-out: EC50 (nM) +/−(SD)
T3 construct: expressed in transfected cells; host or cells: UAS-GFP x KMT2A-MLLT3 cells (retroviral transduction)
T3 sequence (P19793 227-458 limits assumed): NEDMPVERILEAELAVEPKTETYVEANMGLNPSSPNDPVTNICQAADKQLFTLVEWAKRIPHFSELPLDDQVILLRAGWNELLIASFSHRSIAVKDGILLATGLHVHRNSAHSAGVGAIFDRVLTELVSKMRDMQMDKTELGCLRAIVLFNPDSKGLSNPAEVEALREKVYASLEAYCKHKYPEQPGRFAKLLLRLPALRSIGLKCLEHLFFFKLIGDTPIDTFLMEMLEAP
Protocol: Cells were treated, and after 48 h, GFP measured by a ZE5 Flow Cytometer (Biorad).

[4] = system: Saccharomyces cerevisiae; test: Saccharomyces cerevisiae toxicity assay; conditions: 3 h incubation, colony count vs DMSO only control; highest concentration tested 11 µg/µL
Protocol: These compounds were also assessed for mutagenicity and toxicity in Saccharomyces cerevisiae and the toxicity results are summarized in Table 1. No compound was mutagenic in this assay.
All compounds were tested for toxicity and mutagenicity using a Saccharomyces cerevisiae based assay as described previously. Toxicity was assessed in this assay (Table 1), comparing growth on plates to control treatments. Compounds were solubilized in DMSO at increasing concentrations and cells were incubated with the compounds for 3 h before plating on selective media or YPD to assess toxicity and mutagenicity. Cytotoxicity was assessed as described. Growth of colonies on the full nutrient YPD plate for each treatment was compared to the DMSO only control. The concentration at which 50% cell death (as indicated by colony count compared to DMSO only control) +/−10% cell death is reported as the 50% killing rate. The highest concentration tested was 11 µg/µL.

[5] = molecular target: T4, human RARα (Homo sapiens, UniProt P10276); test: RARE-luciferase reporter assay in HEK293 cells; conditions: HEK293, all-trans-RA set to 100%
T4 construct: expressed in transfected cells; host or cells: HEK293 cells
T4 sequence (P10276 1-462): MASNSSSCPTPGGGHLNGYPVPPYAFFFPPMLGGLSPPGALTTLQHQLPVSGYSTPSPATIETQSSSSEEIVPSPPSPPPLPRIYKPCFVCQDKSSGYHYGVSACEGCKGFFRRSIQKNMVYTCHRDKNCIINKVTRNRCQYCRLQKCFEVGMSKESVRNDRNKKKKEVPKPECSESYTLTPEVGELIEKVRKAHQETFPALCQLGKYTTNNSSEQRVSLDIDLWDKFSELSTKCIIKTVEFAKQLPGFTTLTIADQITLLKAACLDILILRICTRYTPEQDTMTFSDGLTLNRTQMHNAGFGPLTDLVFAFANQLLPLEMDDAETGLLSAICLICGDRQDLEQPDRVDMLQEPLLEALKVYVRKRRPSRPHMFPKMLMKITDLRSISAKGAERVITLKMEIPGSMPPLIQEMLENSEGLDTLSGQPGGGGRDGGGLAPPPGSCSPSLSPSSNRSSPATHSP
Protocol: Human embryonic kidney cells (HEK293) were plated at 60,000 cells per well in a 24-well plate and maintained as described above. After 24 h, the cells were transfected with 250 ng pTK-DR5(X2)-Luc, 25 ng pCMX-human RARα, and 20 ng renilla utilizing 1.25 µL polyethylenimine (PEI) per well for 24 h. The sequence of the double DR5 RARE is: 5′-[…]-3′ (DR5 responsive elements underlined). The cells were treated with ethanol vehicle (0.1%), all-trans-retinoic acid (RA, the ligand for RAR), or the indicated rexinoid at a final concentration of 10 nM. After 24 h of treatment, the retinoid activity was measured as described above (dual luciferase assay). […] Three independent assays were conducted with triplicate samples for each treatment group. The value for RA was set to 100%. […]

SMILES | LXRE Activity (% of Bex) [1] | EC50 [2] [nM] | EC50 [3] [nM] | Cyto-Toxicity (50% Cell Death) [4] | RARE Activity (%RA at 10 nM) [5] [%RA]
CC(C)COc1ccc(-n2nnc3cc(C(=O)O)ccc32)cc1C(C)C [Compound 31, 1-(4-isobutoxy-3-isopropylphenyl)-1H-benzo[d][1,2,3]triazole-5-carboxylic acid] | 64.5 % of Bex | > 1000 | > 1000 | none | 3.1
CCN(c1ccc(C(=O)O)c(F)c1)c1ccc(OCC(C)C)c(C(C)C)c1 [Compound 29, 4-(ethyl(4-isobutoxy-3-isopropylphenyl)amino)-2-fluorobenzoic acid] | 61.7 % of Bex | > 1000 | > 1000 | 1 µg/µL | 4.0
